Experimental data published in patent publication US8703793B2, “Tricyclic pyridine derivatives, medicaments containing such compounds, their use and process for their preparation” (Boehringer Ingelheim International GmbH, priority 2008, dated 2014).

The compounds below were run against T1, Recombinant human CETP (Homo sapiens, UniProt P11597) (assay: CETP Scintillation Proximity Assay). Conditions: 3H-cholesteryl ester transfer from human HDL donor to biotin labelled LDL, over night at room temperature; read-out: IC50 values for CETP inhibitory activity.
T1 construct: made in house; host or cells: CHO cells (secreted into conditioned medium)
T1 sequence (P11597 18-493): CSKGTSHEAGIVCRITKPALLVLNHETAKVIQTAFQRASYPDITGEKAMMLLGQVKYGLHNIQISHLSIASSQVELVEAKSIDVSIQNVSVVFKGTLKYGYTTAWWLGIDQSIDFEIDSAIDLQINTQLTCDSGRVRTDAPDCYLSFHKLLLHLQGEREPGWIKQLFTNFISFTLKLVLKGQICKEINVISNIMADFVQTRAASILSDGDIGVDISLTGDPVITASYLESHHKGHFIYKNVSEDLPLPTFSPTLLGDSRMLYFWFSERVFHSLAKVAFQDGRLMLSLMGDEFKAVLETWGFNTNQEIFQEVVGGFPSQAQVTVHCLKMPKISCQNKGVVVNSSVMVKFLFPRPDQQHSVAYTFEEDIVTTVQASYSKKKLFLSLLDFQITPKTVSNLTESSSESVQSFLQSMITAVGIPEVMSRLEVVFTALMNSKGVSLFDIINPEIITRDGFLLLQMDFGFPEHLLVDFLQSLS
Format: biochemical
Experimental: CETP Scintillation Proximity Assay
Recombinant human CETP is partially purified from medium conditioned by CETP expressing CHO cells. In a 96 well homogeneous assay format CETP transfers ^3H-labelled cholesteryl esters from human HDL donor particles to biotin labelled LDL particles. Following over night incubation at room temperature the reaction is stopped by addition of streptavidin-coupled scintillation proximity assay (SPA) beads. These beads captured the biotinylated acceptor particles and the radioactivity is measured. The assay system is purchased and performed according to the manufacturer's recommendations (GE Healthcare).
Inhibitory activity of compounds is determined as percentage of positive control activity containing CETP together with donor and acceptor particles. Background activity is determined by adding buffer instead of CETP. Serial dilution of compound in buffer containing 10% DMSO is performed in order to determine the IC50 values.
In the case of `CC1OC(c2ccc(C(F)(F)F)cc2)c2c1nc1c(c2C2CCCC2)[C@@H](O)CC(C)(C)C1` (single isomer, unassigned) [Diastereomer 3 of Example 1 (2)], the IC50 is reported as < 1 µM.
For `CC1OC(c2ccc(C(C)(C)C)cc2)c2c1nc1c(c2C2CCCCC2)[C@@H](O)CC(C)(C)C1` (stereo partly drawn) [Example 2, 8-(S)-1-(4-tert-Butyl-phenyl)-9-cyclohexyl-3,6,6-trimethyl-1,3,5,6,7,8-hexahydro-furo[3,4b]quinolin-8-ol], the IC50 was < 5 µM.
`CC1OC(c2ccc(C(F)(F)F)cc2)c2c1nc1c(c2C2CCCC2)[C@@H](O)CC(C)(C)C1` (single isomer, unassigned) [Example 1] was tested, and the IC50 was < 2 µM.
For `CC1(C)Cc2nc3c(c(C4CCCC4)c2[C@@H](O)C1)[C@H](c1ccc(C(F)(F)F)cc1)OC31CCCCC1` (single isomer, unassigned) [1 (8), (1′S,8′S)-9′-Cyclopentyl-6′,6′-dimethyl-1′-(4-(trifluoromethyl)phenyl)-5′,6′,7′,8′-tetrahydro-1′H-spiro[cyclohexane-1,3′-furo[3,4-b]quinolin]-8′-ol], the IC50 was < 1 µM.
In the case of `CC1OC(c2ccc(C(F)(F)F)cc2)c2c1nc1c(c2C2CCCC2)[C@@H](O)CC(C)(C)C1` (single isomer, unassigned) [Example 1 (1)], the IC50 is reported as < 2 µM.
`CC1(C)Cc2nc3c(c(C4CCCC4)c2[C@@H](O)C1)[C@H](c1ccc(C(F)(F)F)cc1)OC31CCCC1` (single isomer, unassigned) [1 (10), (1′S,8′S)-9′-Cyclopentyl-6′,6′-dimethyl-1′-(4-(trifluoromethyl)phenyl)-5′,6′,7′,8′-tetrahydro-1′H-spiro[cyclopentane-1,3′-furo[3,4-b]quinolin]-8′-ol] was tested, and the IC50 was < 1 µM.
In the case of `CC1(C)Cc2nc3c(c(C4CCCC4)c2[C@@H](O)C1)[C@@H](c1ccc(C(F)(F)F)cc1)OC31CCCCC1` (single isomer, unassigned) [1 (9), (1′R,8′S)-9′-Cyclopentyl-6′,6′-dimethyl-1′-(4-(trifluoromethyl)phenyl)-5′,6′,7′,8′-tetrahydro-1′H-spiro[cyclohexane-1,3′-furo[3,4-b]quinolin]-8′-ol], the IC50 is reported as < 20 µM.
For `CC1(C)Cc2nc3c(c(C4CCCC4)c2[C@@H](O)C1)C(c1ccc(C(F)(F)F)cc1)OC3(C)C` (single isomer, unassigned) [Example 1 (6)], the IC50 was < 20 µM.
With `CC1OC(c2ccc(C(F)(F)F)cc2)c2c1nc1c(c2C2CCCCC2)[C@@H](O)CC(C)(C)C1` (single isomer, unassigned) [Example 1 (7)] the IC50 was < 1 µM.
In the case of `CC1OC(c2ccc(C(F)(F)F)cc2)c2c1nc1c(c2C2CCCC2)[C@@H](O)CC(C)(C)C1` (single isomer, unassigned) [Diastereomer 4 of Example 1 (2)], the IC50 is reported as < 2 µM.
With `CC1(C)Cc2nc3c(c(C4CCCC4)c2C(O)C1)C(c1ccc(C(F)(F)F)cc1)OC3(C)C` (single isomer, unassigned) [Example 1 (4), 9-Cyclopentyl-3,3,6,6-tetramethyl-1-(4-trifluoromethyl-phenyl)-1,3,5,6,7,8-hexahydro-furo[3,4-b]quinolin-8-ol] the IC50 was < 5 µM.
`CC1(C)Cc2nc3c(c(C4CCCC4)c2[C@@H](O)C1)C(c1ccc(C(F)(F)F)cc1)OC3(C)C` (single isomer, unassigned) [Example 1 (5)] was tested, and the IC50 was < 1 µM.
With `CC1(C)Cc2nc3c(c(C4CCCC4)c2[C@@H](O)C1)C(c1ccc(C(F)(F)F)cc1)OC3` (single isomer, unassigned) [Diastereomer 1 of Example 1 (3)] the IC50 was < 20 µM.

Same assay, conditions: comparison among diastereomers of the same structure
In the case of `CC1OC(c2ccc(C(F)(F)F)cc2)c2c1nc1c(c2C2CCCC2)[C@@H](O)CC(C)(C)C1` (single isomer, unassigned) [Diastereomer 3 of Example 1 (2)], the “CETP inhibitory potency compared to the other diastereomers” value is reported as “higher CETP inhibitory potency as compared to the other diastereomers”.
In the case of `CC1(C)Cc2nc3c(c(C4CCCC4)c2[C@@H](O)C1)C(c1ccc(C(F)(F)F)cc1)OC3(C)C` (single isomer, unassigned) [Example 1 (5)], the “CETP inhibitory potency compared to the other diastereomers” value is reported as “higher CETP inhibitory potency as compared to the other diastereomer”.
